Measured values: paper PMC4442108, “Preclinical Validation of the Heparin-Reactive Peptide p5+14 as a Molecular Imaging Agent for Visceral Amyloidosis” (Molecules, 2015)
Where no end group is shown, it is not given here. [ ]: non-standard residue; d: D form. Tyr(3-I) = N[C@@H](Cc1ccc(O)c(I)c1)C(=O)O

Experiments:
[1] = Biodistribution, SPECT/CT and micro-autoradiography of 125I-p5+14 in healthy wild type mice; assay type: in vivo, mouse (WT)
Procedure: (§1) For serial SPECT/CT imaging in cohorts (n = 3) of AA and healthy wild type (WT) mice, peptide p5+14 (100 µg) was radioiodinated with ~4 mCi of ^125I (Perkin Elmer, Waltham, MA, USA), using 20 µg chloramine T as the oxidizing agent. After quenching the reaction with 20 µg sodium metabisulfite, the radiolabeled peptide was diluted into 0.1% sterile gelatin in PBS and free radioiodide removed by size exclusion chromatography on a 5 mL PD10 (GE Healthcare) solid phase equilibrated with 0.1% gelatin/PBS. Fractions 0f 200 µL were collected and those containing the maximal radioactivity (indicative of ^125I-p5+14) were pooled, and the product’s radiochemical purity was established by SDS polyacrylamide gel electrophoresis (PAGE) analyzed by phosphor imaging (Cyclone Storage Phosphor System, Perkin Elmer, Shelton, CT, USA).
Imaging was performed as described. Briefly, WT or AA amyloid mice (n = 3) were injected with ~3 µg of ^125I-p5+14, 125 µCi (specific activity ~40 µCi/µg) in the lateral tail vein. After the appropriate uptake time (1, 4, 24, and 48 h), mice were euthanized by isoflurane inhalation overdose. SPECT images were acquired using an Inveon trimodality imaging platform (Siemens Preclinical Solution, Knoxville, TN, USA; [64]) running Inveon Acquisition Workplace software (ver. 2.0). Low energy (^125I; 25–45 keV) gamma photons were acquired at each of 60, 16-sec projections with 90 mm of bed travel. A 1 mm-diameter, 5-pinhole (Mouse Whole Body) collimator was used at 30 mm from the center of the field of view. […]
(§2) Samples of liver, spleen, pancreas, kidneys, small and large intestines, stomach and heart were harvested post mortem from every mouse undergoing imaging with ^125I-p5+14 [45]. A sample of each was placed into a tared, plastic vial, weighed and the ^125I radioactivity measured using an automated Wizard 3 gamma counter (1480 Wallac Gamma Counter, Perkin Elmer). The biodistribution data were expressed as % injected dose/g tissue (%ID/g). […]

[2] = target: T1, human ATTR amyloid extract (Homo sapiens, UniProt P02766); experiment: Peptide ex vivo amyloid binding assay (pull-down), ATTR extract; details: ATTR heart extract; ~5 ng 125I-p5+14, 25 µL of 1 mg/mL extract, PBST, 1 h RT, pellet vs supernatant CPM; N = 2
T1 construct: as well as one cardiac ATTR extract, were analyzed in this assay; from tissue; host or cells: human heart, water flotation extract

[3] = test system: human AL and ATTR amyloid in tissue sections; experiment: Peptide histochemistry and overlay micro-autoradiography on human tissue sections; assay type: binding; details: ~5 ng/mL, 1 h room temperature; FFPE human AL and ATTR sections
Procedure: For autoradiography, 6- μm-thick sections were cut from formalin-fixed, paraffin-embedded blocks, containing tissues from mice that had received ^125I-p5+14. Mice were euthanized at 1 h pi of radiotracer. The sections were placed on Plus microscope slides (ThermoFisher Scientific, Waltham, MA, USA), dipped in NTB-2 emulsion (Eastman Kodak, Rochester, NY, USA), stored in the dark and developed after a 4 day exposure. Each section was counterstained with hematoxylin and eosin. […] Blinded qualitative assessment of amyloid load in Congo red-stained sections of liver and spleen was performed by an experienced amyloid researcher who ranked each tissue on a 0 to 4+ scale. All tissue sections were examined using a Leica DM500 light microscope (Leica, Wetzlar, Germany) fitted with cross-polarizing filters (for Congo red). Digital microscopic images were acquired using a cooled CCD camera (SPOT; Diagnostic Instruments, Sterling Heights, MI, USA).
Peptide p5+14 (with a cysteine residue at the N-terminal) was prepared for tissue staining by either biotinylation, according to the manufacturer’s instructions, using a maleimide-biotin conjugation kit (Pierce, Grand Island, NY, USA), or for overlay-micoautoradiography by radioiodination with ^125I, as described above. […]

[4] = test system: healthy tissue homogenates; experiment: Peptide ex vivo binding assay, non-specific binding; details: data not shown
[5] = target: T2, AA amyloid (Mus musculus, UniProt P05367); experiment: Biodistribution, SPECT/CT and micro-autoradiography of 125I-p5+14 in mice with systemic AA amyloidosis; assay type: in vivo, mouse (H2/IL-6 transgenic)
T2 construct: organs known to develop AA amyloid in this mouse model; from tissue; host or cells: live H2/IL-6 transgenic Balb/c mice; liver, spleen, heart, kidney, pancreas
T2 sequence (P05367 20-95 limits assumed): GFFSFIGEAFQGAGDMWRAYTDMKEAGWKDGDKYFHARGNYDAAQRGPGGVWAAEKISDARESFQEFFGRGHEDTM
Procedure: Systemic visceral AA amyloidosis was induced in H2-Ld-huIL-6 Tg Balb/c transgenic mice that constitutively express the human interleukin-6 transgene by iv injection of 10 µg of purified, splenic AA amyloid (amyloid enhancing factor; AEF) in 100 µL of sterile phosphate-buffered saline (PBS). Peptide was evaluated in mice at 4–6 wk post AEF injection when amyloid load was significant.
as §1
Imaging was performed as described. Briefly, WT or AA amyloid mice (n = 3) were injected with ~3 µg of ^125I-p5+14, 125 µCi (specific activity ~40 µCi/µg) in the lateral tail vein. After the appropriate uptake time (1, 4, 24, and 48 h), mice were euthanized by isoflurane inhalation overdose. […]
as §2

[6] = test system: synthetic rVλ6Wil fibrils; assay type: binding, human; details: HSPG-free synthetic rVλ6Wil fibrils in suspension; PBST; 1 h RT; 125I-p5+14 ~5 ng
Procedure: Twenty-five microliters of 1 mg/mL AL extract, or synthetic rVλ6Wil variable domain fibrils were centrifuged in a 0.5 mL microfuge tube at 21,000× g for 5 min. The supernatant was discarded and pellet resuspended in 200 µL of PBS with 0.05% Tween-20 (PBST). Ten microliters of a 1:100 dilution of ^125I-p5+14 (~100,000 counts per minute (CPM); ~5 ng peptide) stock was added to the suspension. The mixture was rotated at RT for 1 h. Samples were then centrifuged twice at 15,000× g for 10 min. Supernatants and pellets were separated after each step and the radioactivity in each was measured using a Cobra II gamma counter (Perkin Elmer) with a 1 min acquisition. The percentage of ^125I-p5+14 bound to pellet was determined as follows: % Bound = Pellet CPM/(Pellet CPM + Supernatant CPM) × 100

GGG[Tyr(3-I)]SKAQKAQAKQAKQAQKAQKAQAKQAKQAQKAQKAQAKQAKQ [125I-p5+14]
micro-autoradiographic distribution of radiolabeled peptide in tissues ([1]; WT mice, 1 h pi, 6 µm tissue sections): not retained by any cells or macroscopic structures in healthy tissues | whole-body retention half-life ([1]; WT mice, iv ~3 µg 125I-p5+14, gamma counting up to 48 h pi, exponential fit, n = 3 per time point): ~ 1.5 h | tissue uptake at 2 h ([1]; mouse, in vivo, iv, 3 ug, healthy mice, 2 h pi, read-out: retention of radioactivity in any organ): < 0.6 %ID/g | % Bound (mean ± SD) [2]: 79.93 ± 1.23% | overlay micro-autoradiography on human tissue sections [3]: co-localized with both AL and ATTR amyloid | non-specific binding [4]: ~ 10% | micro-autoradiographic distribution of radiolabeled peptide in tissues ([5]; AA mice, 1 h pi, 6 µm tissue sections compared with Congo red): co-localized with amyloid in diseased tissues | 125I-p5+14 retention in the spleen ([5]; mice deemed amyloid-free by Congo red histochemical staining (cohort n = 34)): > 3 %ID/g | whole-body retention half-life ([5]; mice with AA amyloidosis, iv ~3 µg 125I-p5+14, gamma counting up to 48 h pi, n = 3 per time point): > 48 h | % bound [6]: 95.7%
